Assay results as given in PMC10439158, “The net electrostatic potential and hydration of ABCG2 affect substrate transport” (Nature Communications, 2023).
Changes are numbered by the printed parent chain.

Key:
ABCG2 [1] = target: T1, ABCG2 (Homo sapiens, UniProt Q9UNQ0); experiment: cell-based; set-up: full-length ABCG2-WT in MEF cells; species or system MEF (mouse embryonic fibroblasts) expressing human ABCG2-WT; Inhibition of ABCG2-mediated Hoechst 33342 transport; intracellular Hoechst 33342 fluorescence accumulation; details: ABCG2-WT, 0.5 uM Hoechst 33342; read-out: Hoechst 33342 transport inhibition IC50
T1 sequence (Q9UNQ0 1-655): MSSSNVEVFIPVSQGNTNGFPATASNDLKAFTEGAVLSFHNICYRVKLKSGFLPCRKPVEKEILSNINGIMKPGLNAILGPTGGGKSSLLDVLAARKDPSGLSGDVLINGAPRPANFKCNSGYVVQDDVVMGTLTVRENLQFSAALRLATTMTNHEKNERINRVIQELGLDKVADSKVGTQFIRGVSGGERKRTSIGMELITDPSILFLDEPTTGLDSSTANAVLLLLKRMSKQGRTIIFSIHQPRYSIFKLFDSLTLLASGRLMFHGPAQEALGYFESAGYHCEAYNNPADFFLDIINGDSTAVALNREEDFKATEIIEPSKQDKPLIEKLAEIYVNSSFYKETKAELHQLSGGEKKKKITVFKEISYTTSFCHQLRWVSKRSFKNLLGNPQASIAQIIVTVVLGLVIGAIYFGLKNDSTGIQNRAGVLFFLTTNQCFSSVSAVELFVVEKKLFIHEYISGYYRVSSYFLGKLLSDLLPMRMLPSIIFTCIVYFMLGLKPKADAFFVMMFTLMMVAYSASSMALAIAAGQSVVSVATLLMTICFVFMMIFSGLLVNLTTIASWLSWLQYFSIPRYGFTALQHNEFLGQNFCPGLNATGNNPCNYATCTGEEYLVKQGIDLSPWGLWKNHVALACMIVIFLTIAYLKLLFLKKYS
Experimental: The intracellular accumulation of fluorescent Hoechst 33342, pheophorbide a, chlorin e6, and purpurin 18, ABCG2 substrates, was used to determine the function of ABCG2. For Hoechst 33342 accumulation assay, MEFs were seeded into a 96-well black clear bottom plate (Corning #3603) at 20,000 cells/well and 0.5 μM Hoechst 33342, and either [compound left out] or the test inhibitor (0.002–10 μM) were added to the culture medium followed by incubation for 2 h at 37 °C in the dark. Thereafter, the medium was removed, and cells were washed twice with 200 μL ice-cold PBS and the fluorescence of Hoechst 33342 was then quantitatively determined with a Synergy H4 microplate reader (BioTek, Winooski, VT, USA) at an excitation wavelength of 355 nm and an emission wavelength of 460 nm. The accumulation of Hoechst 33342 was normalized to protein concentration as determined using the BCA Protein Assay Kit (Pierce, Rockford, IL, USA). […] The intracellular accumulation of pheophorbide a, purpurin 18, or chlorin e6 was measured at an excitation wavelength of 405 nm and an emission wavelength of 667 nm. […] The total radioactivity was measured by liqu Fig. 4 N436A substitution affects inhibitor interaction. a–d Representative snapshots from MDS of tariquidar interacting with ABCG2. a ABCG2-WT with residues within 4 Å of tariquidar are in surface representation. […]

ABCG2 [2] = target: T1, ABCG2; experiment: cell-based; set-up: full-length ABCG2-WT in MEF cells; species or system Abcg2-KO MEFs expressing human ABCG2-WT; Inhibition of ABCG2-mediated Hoechst 33342 efflux; intracellular Hoechst 33342 fluorescence accumulation, normalized to vector control; details: 0.5 uM Hoechst 33342 substrate, 2 h, 37 °C; read-out: IC50 for transport inhibition in WT
Experimental: The intracellular accumulation of fluorescent Hoechst 33342, pheophorbide a, chlorin e6, and purpurin 18, ABCG2 substrates, was used to determine the function of ABCG2. […] Thereafter, the medium was removed, and cells were washed twice with 200 μL ice-cold PBS and the fluorescence of Hoechst 33342 was then quantitatively determined with a Synergy H4 microplate reader (BioTek, Winooski, VT, USA) at an excitation wavelength of 355 nm and an emission wavelength of 460 nm. The accumulation of Hoechst 33342 was normalized to protein concentration as determined using the BCA Protein Assay Kit (Pierce, Rockford, IL, USA). The data were normalized by the proportion accumulated relative (%) to vector control. For the time-dependent Hoechst 33342 accumulation assay, 10 μM Hoechst 33342 was treated for different time periods (0.5, 1, 1.5, 2, 5, 10, 20, 30, 60, and 90 min). Relative intracellular Hoechst 33342 levels in the MEFs were normalized to vector control at 90 min. For the other fluorescent substrate accumulation assay, 0.5 μM pheophorbide a, 5 μM chlorin e6, or 5 μM purpurin 18 were treated for 1 h at 37 °C in the dark. The intracellular accumulation of pheophorbide a, purpurin 18, or chlorin e6 was measured at an excitation wavelength of 405 nm and an emission wavelength of 667 nm. […] Thereafter, the medium was removed and cells were washed twice with 1 mL ice-cold PBS. […] The total radioactivity was measured by liqu Apparent EC50 and IC50 values were calculated from dose-response data using nonlinear regression analysis. All experiments were independently repeated at least three times. […] Non-polar residues are grey, polar residues are green, and acidic residues are red.

ABCG2 E211Q = target: T2, ABCG2 E211Q (Homo sapiens, UniProt Q9UNQ0, E211Q); experiment: biochemical; set-up: species or system ABCG2 membrane vesicles; Hoechst 33342 concentration-dependent thermal stabilization of ABCG2, western blot read-out, without ATP; details: thermal stabilization, without ATP
T2 construct: full-length ABCG2-WT in membrane vesicles
T2 sequence (Q9UNQ0 1-655 E211Q): T1 sequence (Q9UNQ0 1-655) with E211Q
Description: (§1) The difference between ABCG-WT and ABCG2-N436A was not due to a difference in Hoechst 33342 initial uptake, given that the initial rate of uptake was linear and the slopes virtually identical for ABCG2-WT and ABCG2-N436A (Fig. 1d). The steady-state level of Hoechst 33342 was twofold lower in ABCG2-N436A cells (Fig. 1d). Steady-state drug levels represent an equilibrium between uptake and efflux rates, which can be used to estimate the rate of drug efflux. The twofold lower steady-state level of Hoechst 33342 in cells expressing ABCG2-N436A, therefore, indicates an estimated twofold increase in efflux (Fig. 1d). Direct monitoring of Hoechst 33342 efflux is not possible because of its avidity for binding to the minor groove of DNA, leaving little free Hoechst 33342 available for assessing efflux. This effect is also responsible for Hoechst 33342’s cytotoxicity, a property that we utilized as an additional approach to assess ABCG2 transport activity. […] The greater reduction in Hoechst 33342 cytotoxicity in ABCG2-N436A may be because Hoechst 33342 cytotoxicity occurs by a dual process of DNA binding and topoisomerase inhibition, both of which promote cytotoxic DNA damage. […] Consistent with the lower EC50 value of ATP (0.3 mM) for ABCG2-N436A, ABCG2-N436A was thermally stabilized by the non-hydrolyzable ATP analog AMP-PNP at lower concentrations than ABCG2-WT

ABCG2 K86M = target: T3, ABCG2 K86M (Homo sapiens, UniProt Q9UNQ0, K86M); experiment: biochemical; set-up: species or system ABCG2 membrane vesicles; Hoechst 33342 concentration-dependent thermal stabilization of ABCG2, western blot read-out, without ATP; details: thermal stabilization, without ATP
T3 construct: full-length ABCG2-WT in membrane vesicles
T3 sequence (Q9UNQ0 1-655 K86M): T1 sequence (Q9UNQ0 1-655) with K86M
Description: as §1

ABCG2 [3] = target: T1, ABCG2; experiment: biochemical; set-up: full-length ABCG2-WT in membrane vesicles; species or system ABCG2 membrane vesicles; Hoechst 33342 concentration-dependent thermal stabilization of ABCG2, western blot read-out, without ATP; details: thermal stabilization, without ATP
ABCG2 [4] = target: T4, ABCG2 (Homo sapiens, UniProt Q9UNQ0); experiment: isothermal shift assay on membranes; inhibition of vanadate-sensitive ATPase in membranes; transport assay; format: biochemical
T4 construct: full-length ABCG2-WT in membrane vesicles

Compound: CNC(=O)c1ccccc1Sc1ccc2c(/C=C/c3ccccn3)n[nH]c2c1 [Axitinib]
- IC50 (ABCG2 [1]): 6.04 µM

Compound: COc1cc2nccc(Oc3ccc(NC(=O)C4(C(=O)Nc5ccc(F)cc5)CC4)cc3)c2cc1OC [Cabozantinib]
- IC50 (ABCG2 [2]): 2.4 µM

Compound: C#Cc1cccc(Nc2ncnc3cc(OCCOC)c(OCCOC)cc23)c1 [Erlotinib]
- IC50 (ABCG2 [2]): 0.77 µM

Compound: CCOc1ccc(-c2nc3cc(-c4nc5cc(N6CCN(C)CC6)ccc5[nH]4)ccc3[nH]2)cc1 [Hoechst 33342]
- EC50 (ABCG2 E211Q): 16 ± 3 µM
- EC50 (ABCG2 K86M): 31 ± 1 µM
- EC50 (ABCG2 [3]): 8.8 ± 1.9 µM
- IC50 (ABCG2 [4]): 35 µM

Compound: CNC(=O)c1cc(Oc2ccc(NC(=O)Nc3ccc(Cl)c(C(F)(F)F)c3)cc2)ccn1 [Sorafenib]
- IC50 (ABCG2 [2]): 4.34 µM

Compound: CCCS(=O)(=O)Nc1ccc(F)c(C(=O)c2c[nH]c3ncc(-c4ccc(Cl)cc4)cc23)c1F [Vemurafenib]
- IC50 (ABCG2 [2]): 4.15 µM
